Experimental data from US20230265151A1, “GIP/GLP1 CO-AGONIST COMPOUNDS” (priority 2020, published 2023).
Read-outs that look alike come from different tables or passages of the source. *1 amine or outer side, *2 acyl side, *3 side chain or, on linkers, in order; H or OH if unused. Where a SMILES comes first, the peptide text is derived from it. Side-chain parts run from the residue outwards. [ ]: non-standard residue; d: D form. The star is where a group is joined. αMePhe(2-F) = C[C@](N)(Cc1ccccc1F)C(=O)O; γGlu = O=C(O)[C@H](CCC(=O)[*:2])N[*:1]; C14 diacid = O=C(O)CCCCCCCCCCCCC(=O)*; αMeY = C[C@](N)(Cc1ccc(O)cc1)C(=O)O; αMeL = CC(C)C[C@](C)(N)C(=O)O; Orn = NCCC[C@H](N)C(=O)O; AEEA = NCCOCCOCC(=O)O; Aib = CC(C)(N)C(=O)O

Columns and labels:
Format in all cases: cell-based
[1] = target: T1, hGIPR (Homo sapiens, UniProt P48546); test: Functional cAMP formation (HTRF) in HEK-293 clonal cells expressing hGIPR, 0.1% bovine casein, without or with 1.0% human serum albumin; details: for Emax: percent of maximal response to GIP(1-42)NH2; for EC50: cAMP
T1 construct: expressed in transfected cells
T1 sequence (P48546 22-466): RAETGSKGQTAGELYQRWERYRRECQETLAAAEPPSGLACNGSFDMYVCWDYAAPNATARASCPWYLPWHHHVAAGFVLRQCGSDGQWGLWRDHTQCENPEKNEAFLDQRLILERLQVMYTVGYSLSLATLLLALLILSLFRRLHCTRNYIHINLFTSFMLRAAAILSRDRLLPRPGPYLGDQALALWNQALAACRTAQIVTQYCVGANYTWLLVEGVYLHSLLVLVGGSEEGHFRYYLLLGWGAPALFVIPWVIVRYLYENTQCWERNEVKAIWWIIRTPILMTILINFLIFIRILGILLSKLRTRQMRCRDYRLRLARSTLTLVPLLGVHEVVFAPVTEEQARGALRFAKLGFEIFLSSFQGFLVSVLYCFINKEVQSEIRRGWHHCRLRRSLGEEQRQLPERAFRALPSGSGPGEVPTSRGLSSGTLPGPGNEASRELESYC
Procedure, shortened: (§1)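 Cells were stimulated with peptide for 30 min at 37° C, then lysed in buffer carrying cAMP-d2 and anti-cAMP Eu3+-cryptate for a competitive HTRF read after at least 60 min at room temperature. The 665/620 nm ratio was converted to nM cAMP against a standard curve.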

[2] = target: T2, hGCGR (Homo sapiens, UniProt P47871); test: Functional cAMP formation (HTRF) in HEK-293 clonal cells expressing hGCGR, 0.1% bovine casein, without or with 1.0% human serum albumin; details: cAMP, 37° C.
T2 construct: expressed in transfected cells
Procedure, shortened: as §1

[3] = target: hGLP-1R (Homo sapiens, UniProt P43220); test: Functional cAMP formation (HTRF) in HEK-293 clonal cells expressing hGLP-1R, 0.1% bovine casein, without or with 1.0% human serum albumin; parameters: expressed in transfected cells; details: 37° C.; for Emax: HEK293, cAMP, percent of maximal response to GLP-1(7-36)NH2, read-out: hGLP-1R Emax, % ± SEM; for EC50: cAMP, 0.1% bovine casein (no human serum albumin), geometric mean
Procedure, shortened: as §1

[4] = HEK293, cAMP, 37° C., 0.1% bovine casein and 1.0% human serum albumin, read-out: hGIPR Emax, % ± SEM
[5] = 37° C., 0.1% bovine casein (no human serum albumin), geometric mean, read-out: hGIPR EC50, nM (SEM, n)
[6] = 0.1% bovine casein (no human serum albumin), geometric mean, read-out: hGCGR EC50, nM (SEM, n)
[7] = 0.1% bovine casein and 1.0% human serum albumin, geometric mean (SEM, n), read-out: hGCGR EC50, nM (SEM, n)
[8] = 0.1% bovine casein and 1.0% human serum albumin
[9] = 0.1% bovine casein, arithmetic mean
[10] = read-out: hGLP-1R EC50, nM (SEM, n)

T2 sequence (P47871 26-477): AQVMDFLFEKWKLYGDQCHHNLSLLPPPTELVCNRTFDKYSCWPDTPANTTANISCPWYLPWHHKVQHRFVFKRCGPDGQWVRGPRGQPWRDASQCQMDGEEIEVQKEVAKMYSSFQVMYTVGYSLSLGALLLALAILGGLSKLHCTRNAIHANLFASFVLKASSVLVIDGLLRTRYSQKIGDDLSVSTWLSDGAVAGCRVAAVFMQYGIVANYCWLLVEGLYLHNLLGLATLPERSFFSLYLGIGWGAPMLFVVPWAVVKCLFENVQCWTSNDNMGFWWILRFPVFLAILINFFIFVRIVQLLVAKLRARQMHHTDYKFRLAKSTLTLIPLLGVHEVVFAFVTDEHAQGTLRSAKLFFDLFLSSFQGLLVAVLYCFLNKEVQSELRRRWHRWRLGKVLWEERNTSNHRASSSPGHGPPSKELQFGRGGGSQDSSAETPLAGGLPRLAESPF
Chain of hGLP-1R (P43220 24-463): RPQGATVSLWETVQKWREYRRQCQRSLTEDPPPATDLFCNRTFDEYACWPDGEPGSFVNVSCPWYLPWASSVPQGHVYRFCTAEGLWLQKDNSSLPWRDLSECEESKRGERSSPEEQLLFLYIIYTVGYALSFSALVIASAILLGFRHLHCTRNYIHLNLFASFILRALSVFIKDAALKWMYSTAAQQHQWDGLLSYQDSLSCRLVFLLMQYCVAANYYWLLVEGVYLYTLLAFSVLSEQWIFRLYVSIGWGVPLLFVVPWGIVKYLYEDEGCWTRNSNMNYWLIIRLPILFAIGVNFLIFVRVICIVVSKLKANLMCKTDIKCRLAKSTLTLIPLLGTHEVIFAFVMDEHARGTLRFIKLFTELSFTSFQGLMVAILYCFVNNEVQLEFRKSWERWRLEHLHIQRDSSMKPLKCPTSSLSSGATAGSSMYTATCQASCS

SMILES	Emax [1, 4]	Emax ([1]; HEK293, cAMP, 37° C., 0.1% bovine casein, arithmetic mean, read-out: hGIPR Emax, % ± SEM)	EC50 [1, 5]	EC50 [2, 6]	EC50 [2, 7]	Emax [3, 8]	Emax [3, 9]	EC50 [3, 10]	EC50 ([1]; 37° C., 0.1% bovine casein and 1.0% human serum albumin, geometric mean (SEM, n), read-out: hGIPR EC50, nM (SEM, n))	Emax ([1]; HEK293, read-out: hGIPR Emax, % ± SEM, cAMP, 37° C., 0.1% bovine casein and 1.0% human serum albumin)	EC50 ([1]; hGIPR EC50, nM (SEM, n), 37° C., 0.1% bovine casein (no human serum albumin), geometric mean)	EC50 ([2]; hGCGR EC50, nM (SEM, n), 0.1% bovine casein (no human serum albumin), geometric mean)	EC50 ([2]; hGCGR EC50, nM (SEM, n), 0.1% bovine casein and 1.0% human serum albumin, geometric mean (SEM, n))	EC50 ([3]; hGLP-1R EC50, nM (SEM, n))
CC[C@H](C)[C@H](NC(=O)[C@H](CC(C)C)NC(=O)[C@](C)(Cc1ccc(O)cc1)NC(=O)[C@@H](CCC(=O)O)NC(=O)[C@@H](NC(=O)[C@H](Cc1ccccc1)NC(=O)[C@H](CCCCNC(=O)CCOCCOCCOCCOCCNC(=O)CC[C@H](NC(=O)CCCCCCCCCCCCC(=O)O)C(=O)O)NC(=O)C(C)(C)NC(=O)[C@H](CCC(N)=O)NC(=O)[C@H](C)NC(=O)[C@H](CCCCNC(=O)CCOCCOCCOCCOCCNC(=O)CC[C@H](NC(=O)CCCCCCCCCCCCC(=O)O)C(=O)O)NC(=O)[C@H](CCCN)NC(=O)[C@H](CC(=O)O)NC(=O)[C@H](CC(C)C)NC(=O)[C@](C)(CC(C)C)NC(=O)[C@@H](NC(=O)C(C)(C)NC(=O)[C@H](Cc1ccncc1)NC(=O)[C@H](CC(=O)O)NC(=O)[C@H](CO)NC(=O)[C@@H](NC(=O)[C@](C)(Cc1ccccc1F)NC(=O)[C@@H](NC(=O)CNC(=O)[C@H](CCC(=O)O)NC(=O)C(C)(C)NC(=O)[C@@H](N)Cc1ccc(O)cc1)[C@@H](C)O)[C@@H](C)O)[C@@H](C)CC)[C@@H](C)CC)C(=O)N[C@@H](CCC(=O)O)C(=O)NCC(=O)NCC(=O)N1CCC[C@H]1C(=O)N[C@@H](CO)C(=O)N[C@@H](CO)C(=O)NCC(=O)N[C@@H](C)C(=O)N1CCC[C@H]1C(=O)N1CCC[C@H]1C(=O)N1CCC[C@H]1C(=O)N[C@@H](CO)C(N)=O [Example 405]	74.3%	100%	0.0209 nM	> 9950 nM	> 9950 nM	78.1%	93.3%	1.26 nM	–	–	–	–	–	–
CC[C@H](C)[C@H](NC(=O)[C@H](CC(C)C)NC(=O)[C@](C)(Cc1ccc(O)cc1)NC(=O)[C@@H](CCC(=O)O)NC(=O)[C@@H](NC(=O)[C@H](Cc1ccccc1)NC(=O)[C@H](CCCCNC(=O)COCCOCCNC(=O)COCCOCCNC(=O)CC[C@H](NC(=O)CCCCCCCCCCCCC(=O)O)C(=O)O)NC(=O)C(C)(C)NC(=O)[C@H](CCC(N)=O)NC(=O)[C@H](C)NC(=O)[C@H](CCCCNC(=O)COCCOCCNC(=O)COCCOCCNC(=O)CC[C@H](NC(=O)CCCCCCCCCCCCC(=O)O)C(=O)O)NC(=O)[C@H](CCCN)NC(=O)[C@H](CC(=O)O)NC(=O)[C@H](CC(C)C)NC(=O)[C@](C)(CC(C)C)NC(=O)[C@@H](NC(=O)C(C)(C)NC(=O)[C@H](Cc1ccncc1)NC(=O)[C@H](CC(=O)O)NC(=O)[C@H](CO)NC(=O)[C@@H](NC(=O)[C@](C)(Cc1ccccc1F)NC(=O)[C@@H](NC(=O)CNC(=O)[C@H](CCC(=O)O)NC(=O)C(C)(C)NC(=O)[C@@H](N)Cc1ccc(O)cc1)[C@@H](C)O)[C@@H](C)O)[C@@H](C)CC)[C@@H](C)CC)C(=O)N[C@@H](CCCN)C(=O)NCC(=O)NCC(=O)N1CCC[C@H]1C(=O)N[C@@H](CO)C(=O)N[C@@H](CO)C(=O)NCC(=O)N[C@@H](C)C(=O)N1CCC[C@H]1C(=O)N1CCC[C@H]1C(=O)N1CCC[C@H]1C(=O)N[C@@H](CO)C(N)=O [Example 406]	87.3%	–	0.00896 nM	> 9950 nM	> 9950 nM	96%	98.5%	0.351 nM	–	–	–	–	–	–
CC[C@H](C)[C@H](NC(=O)[C@H](CC(C)C)NC(=O)[C@](C)(Cc1ccc(O)cc1)NC(=O)[C@@H](CCC(=O)O)NC(=O)[C@@H](NC(=O)[C@H](Cc1ccccc1)NC(=O)[C@H](CCCCNC(=O)COCCOCCNC(=O)COCCOCCNC(=O)CC[C@H](NC(=O)CCCCCCCCCCCCC(=O)O)C(=O)O)NC(=O)C(C)(C)NC(=O)[C@H](CCC(N)=O)NC(=O)[C@H](C)NC(=O)[C@H](CCCCNC(=O)COCCOCCNC(=O)COCCOCCNC(=O)CC[C@H](NC(=O)CCCCCCCCCCCCC(=O)O)C(=O)O)NC(=O)[C@H](CCCN)NC(=O)[C@H](CC(=O)O)NC(=O)[C@H](CC(C)C)NC(=O)[C@](C)(CC(C)C)NC(=O)[C@@H](NC(=O)C(C)(C)NC(=O)[C@@H](NC(=O)[C@H](CC(=O)O)NC(=O)[C@H](CO)NC(=O)[C@@H](NC(=O)[C@](C)(Cc1ccccc1F)NC(=O)[C@@H](NC(=O)CNC(=O)[C@H](CCC(=O)O)NC(=O)C(C)(C)NC(=O)[C@@H](N)Cc1ccc(O)cc1)[C@@H](C)O)[C@@H](C)O)C(C)C)[C@@H](C)CC)[C@@H](C)CC)C(=O)N[C@@H](CCCN)C(=O)NCC(=O)NCC(=O)N1CCC[C@H]1C(=O)N[C@@H](CO)C(=O)N[C@@H](CO)C(=O)NCC(=O)N[C@@H](C)C(=O)N1CCC[C@H]1C(=O)N1CCC[C@H]1C(=O)N1CCC[C@H]1C(=O)N[C@@H](CO)C(N)=O [Example 407] (H-Y[Aib]EGT[αMePhe(2-F)]TSDV[Aib]I[αMeL]LD[Orn]K([AEEA-AEEA-γGlu-C14 diacid])AQ[Aib]K([AEEA-AEEA-γGlu-C14 diacid])FI[dE][αMeY]LI[Orn]GGPSSGAPPPS-NH2)	95.4%	–	0.0114 nM	> 9950 nM	> 9950 nM	97.2%	100%	0.156 nM	1.87 nM	–	–	–	–	–
CC[C@H](C)[C@H](NC(=O)[C@H](CC(C)C)NC(=O)[C@](C)(Cc1ccc(O)cc1)NC(=O)[C@@H](CCC(=O)O)NC(=O)[C@@H](NC(=O)[C@H](Cc1ccccc1)NC(=O)[C@H](CCCCNC(=O)COCCOCCNC(=O)COCCOCCNC(=O)CC[C@H](NC(=O)CCCCCCCCCOc1ccc(C(=O)O)cc1)C(=O)O)NC(=O)C(C)(C)NC(=O)[C@H](CCC(N)=O)NC(=O)[C@H](C)NC(=O)[C@H](CCCCNC(=O)COCCOCCNC(=O)COCCOCCNC(=O)CC[C@H](NC(=O)CCCCCCCCCOc1ccc(C(=O)O)cc1)C(=O)O)NC(=O)[C@H](CCCN)NC(=O)[C@H](CC(=O)O)NC(=O)[C@H](CC(C)C)NC(=O)[C@](C)(CC(C)C)NC(=O)[C@@H](NC(=O)C(C)(C)NC(=O)[C@H](Cc1ccncc1)NC(=O)[C@H](CC(=O)O)NC(=O)[C@H](CO)NC(=O)[C@@H](NC(=O)[C@](C)(Cc1ccccc1F)NC(=O)[C@@H](NC(=O)CNC(=O)[C@H](CCC(=O)O)NC(=O)C(C)(C)NC(=O)[C@@H](N)Cc1ccc(O)cc1)[C@@H](C)O)[C@@H](C)O)[C@@H](C)CC)[C@@H](C)CC)C(=O)N[C@@H](CCCN)C(=O)NCC(=O)NCC(=O)N1CCC[C@H]1C(=O)N[C@@H](CO)C(=O)N[C@@H](CO)C(=O)NCC(=O)N[C@@H](C)C(=O)N1CCC[C@H]1C(=O)N1CCC[C@H]1C(=O)N1CCC[C@H]1C(=O)N[C@@H](CO)C(N)=O [Example 408]	–	–	–	–	–	–	–	–	–	84.4%	0.00888 nM	> 9950 nM	> 9950 nM	0.227 nM
